Experimental data published in the NIST ThermoML archive (doi:10.1016/j.fluid.2008.03.012).

Test: excess molar enthalpy (molar enthalpy of mixing); xn = mol fraction of the nth substance listed
Conditions: Liquid, Flow calorimetry

CCOC(=O)CC(C)=O [ethyl 3-oxobutanoate] + CCCO
excess molar enthalpy [kcal/mol]
Conditions | 298.15 K | 313.15 K | 328.15 K
100 kPa, x1 = 0.1001 | 0.208 | 0.237 | 0.256
100 kPa, x1 = 0.1998 | 0.324 | 0.378 | 0.414
100 kPa, x1 = 0.3003 | 0.396 | 0.464 | 0.509
100 kPa, x1 = 0.3502 | 0.42 | 0.493 | 0.539
100 kPa, x1 = 0.3994 | 0.436 | 0.512 | 0.558
100 kPa, x1 = 0.4501 | 0.446 | 0.522 | 0.565
100 kPa, x1 = 0.4997 | 0.45 | 0.524 | 0.564
100 kPa, x1 = 0.5505 | 0.446 | 0.517 | 0.553
100 kPa, x1 = 0.5997 | 0.435 | 0.501 | 0.532
100 kPa, x1 = 0.6497 | 0.417 | 0.475 | 0.504
100 kPa, x1 = 0.7007 | 0.39 | 0.441 | 0.462
100 kPa, x1 = 0.7996 | 0.307 | 0.341 | 0.351
100 kPa, x1 = 0.9004 | 0.175 | 0.187 | 0.193
10000 kPa, x1 = 0.1003 | 0.204 | 0.229 | 0.254
10000 kPa, x1 = 0.2001 | 0.318 | 0.364 | 0.407
10000 kPa, x1 = 0.3007 | 0.389 | 0.45 | 0.503
10000 kPa, x1 = 0.3506 | 0.412 | 0.474 | 0.533
10000 kPa, x1 = 0.3998 | 0.427 | 0.492 | 0.552
10000 kPa, x1 = 0.4505 | 0.436 | 0.502 | 0.563
10000 kPa, x1 = 0.5001 | 0.439 | 0.503 | 0.563
10000 kPa, x1 = 0.5509 | 0.435 | 0.498 | 0.552
10000 kPa, x1 = 0.6 | 0.425 | 0.483 | 0.53
10000 kPa, x1 = 0.6501 | 0.407 | 0.457 | 0.502
10000 kPa, x1 = 0.701 | 0.38 | 0.421 | 0.461
10000 kPa, x1 = 0.7999 | 0.3 | 0.322 | 0.35
10000 kPa, x1 = 0.9005 | 0.17 | 0.179 | 0.19

CCOC(=O)CC(C)=O [ethyl 3-oxobutanoate] + CCO
excess molar enthalpy [kcal/mol]
Conditions | 298.15 K | 313.15 K | 328.15 K
100 kPa, x1 = 0.0999 | 0.178 | 0.202 | 0.217
100 kPa, x1 = 0.1997 | 0.286 | 0.326 | 0.359
100 kPa, x1 = 0.2994 | 0.357 | 0.403 | 0.445
100 kPa, x1 = 0.3495 | 0.38 | 0.43 | 0.473
100 kPa, x1 = 0.3999 | 0.396 | 0.448 | 0.493
100 kPa, x1 = 0.4501 | 0.406 | 0.457 | 0.502
100 kPa, x1 = 0.4995 | 0.408 | 0.459 | 0.502
100 kPa, x1 = 0.5492 | 0.405 | 0.455 | 0.494
100 kPa, x1 = 0.6008 | 0.395 | 0.439 | 0.476
100 kPa, x1 = 0.6501 | 0.377 | 0.418 | 0.45
100 kPa, x1 = 0.7008 | 0.353 | 0.388 | 0.415
100 kPa, x1 = 0.8006 | 0.275 | 0.296 | 0.313
100 kPa, x1 = 0.9002 | 0.157 | 0.168 | 0.17
10000 kPa, x1 = 0.0998 | 0.173 | 0.202 | 0.215
10000 kPa, x1 = 0.1995 | 0.281 | 0.325 | 0.351
10000 kPa, x1 = 0.2992 | 0.349 | 0.402 | 0.436
10000 kPa, x1 = 0.3493 | 0.371 | 0.429 | 0.463
10000 kPa, x1 = 0.3996 | 0.387 | 0.447 | 0.481
10000 kPa, x1 = 0.4498 | 0.396 | 0.455 | 0.489
10000 kPa, x1 = 0.4992 | 0.399 | 0.458 | 0.489
10000 kPa, x1 = 0.5489 | 0.396 | 0.453 | 0.481
10000 kPa, x1 = 0.6005 | 0.385 | 0.438 | 0.464
10000 kPa, x1 = 0.6499 | 0.368 | 0.417 | 0.437
10000 kPa, x1 = 0.7005 | 0.343 | 0.387 | 0.403
10000 kPa, x1 = 0.8004 | 0.268 | 0.295 | 0.302
10000 kPa, x1 = 0.9001 | 0.15 | 0.167 | 0.168
